Reference: patent US20250026781A1, “Prodrugs of Neurosteroid Analogs and Uses Thereof” (Emory University, priority 2021, published 2025)
Where a name gives a salt, the structure may show the parent alone.

Test: Plasma stability assay in human plasma (LC-MS/MS)
Type: in vitro ADME
Settings: 37° C., 3 μM test compound, time points 0-240 min, read-out: Plasma t1/2 (converted)
Experimental: Procaine and procainamide were purchased from Sigma Aldrich. HPLC-grade acetonitrile, water, methanol, and formic acid were purchased from Fisher Scientific. Human plasma (Cat. No. […]2N) was obtained from BIOIVT, and PBS (1× Dulbecco's, pH 7.4) from Thermo Fisher Scientific.
Test compounds were dissolved in DMSO to make a stock solution of 10 mM and then diluted to 500 μM in buffer or 70% methanol. Human plasma was thawed at ambient temperature and aliquoted (994.0 μL) to a 1.5 mL Eppendorf tube in duplicates (vials A and B) for each compound. The plasma was incubated at 37° C. for 10 min in an incubator shaker at 150 RPM; the reaction was initiated by addition of the test compound (6.0 μL), followed by vortex mixing. The total reaction volume was 1000 μL, the final organic solvent concentrations were […] (when 70% methanol was used for dilution) and 0.03% DMSO, and the final concentration of the test compound was 3 μM. The spiked plasma samples were incubated at 37° C. for 4 h. The reactions were terminated at time point 0, 15, 30, 60, 120, 180, and 240 min by taking a 100 μL aliquot from the test incubation mixture and immediately quenching it by adding it into ice-cold acetonitrile or methanol (150 μL) containing 2 μM internal standard (ISTD), followed by vortex mixing. The ISTD was d5-7-ethoxy coumarin. The samples were then centrifuged at 15000 RPM for 25 min at 4° C., and the supernatant was transferred to an LC-MS vial for analysis by LC-MS/MS. Each time point was tested in duplicates followed by in-between blank washes to avoid carryover and to equilibrate the column.
Procaine (poor plasma stability) and procainamide (good plasma stability) were used as controls at the same concentration as that of the test compound. These controls were run in parallel to test the assay's competency. Matrix blank was prepared by adding acetonitrile or methanol containing ISTD to plasma samples without any of the test or control compounds. Also, an additional control sample was made to simply monitor compound degradation in PBS buffer.
Below is a summary of samples prepared for a given test compound in a typical plasma stability assay: • Test compound (TC): 994 μL human plasma+6.0 μL TC (Vial A) • 994 μL human plasma+6.0 μL TC (Vial B) • Control: 596 μL human plasma+3.6 μL (procaine+procainamide) • Blank matrix: 500 μL PBS buffer+100 μL human plasma • Additional control: 142 μL PBS buffer+0.9 μL TC • Quenching mixture: 150 μL acetonitrile or methanol with ISTD (2 μM) • Final volume: 250 μL (100 μL from the incubation mixture+150 μL quenching mixture; final ISTD conc.: 1.2 μM)
LC-MS/MS analysis was performed using Agilent 1260 Infinity II HPLC, coupled with an Agilent G6460 triple quadrupole mass spectrometer (Agilent Technologies, USA). The data were acquired and processed using the Agilent 6460 Quantitative Analysis data processing software.
Reverse-phase HPLC separation for each compound was achieved on an Agilent InfinityLab Poroshell 120 C18 column (2.1×50 mm, 2.7 μm) with a mobile phase composed of methanol/water with 0.1% formic acid or acetonitrile/water with 0.1% formic acid at a flow rate of 0.5 mL/min. Each method was developed in the presence of the ISTD. The column temperature was maintained at 40° C. The detection was operated using the Agilent Jet-Stream electrospray positive ionization under the multiple reaction monitoring (MRM) mode. The mass spec conditions were as follows: dwell time 100 ms; gas flow 10 L/min; nebulizer pressure 45 psi; delta EMV 200 V.
Plots of time (x-axis) vs. the natural logarithm of percent parent remaining (y-axis) were subsequently constructed to determine the slope. Finally, the plasma stability was evaluated using the following equation: […]

Row | SMILES | half-life at 3 μM
1 | CNCCN(C)C(=O)O/N=C(\C)[C@H]1CC[C@H]2[C@@H]3CCC4C[C@@H](O)CC[C@]4(C)[C@H]3CC[C@]12C (stereo partly drawn) [12a, (E)-1-((3S,8R,9S,10S,13S,14S,17S)-3-hydroxy-10,13-dimethylhexadecahydro-1H-cyclopenta[a]phenanthren-17-yl)ethan-1-one O-(methyl (2-(methylamino)ethyl)carbamoyl) oxime trifluoroacetate] | 1.45 h
2 | CNCCN(C)C(=O)O/N=C(\C)[C@H]1CC[C@H]2[C@@H]3CC=C4C[C@@H](O)CC[C@]4(C)[C@H]3CC[C@]12C [12b, (E)-1-((3S,8S,9S,10R,13S,14S,17S)-3-hydroxy-10,13-dimethyl-2,3,4,7,8,9,10,11,12,13,14,15,16,17-tetradecahydro-1H-cyclopenta[a]phenanthren-17-yl)ethan-1-one O-(methyl (2-(methylamino)ethyl)carbamoyl)oxime trifluoroacetate] | 1.23 h
3 | CNCCN(C)C(=O)O/N=C(\C)[C@H]1CC[C@H]2[C@@H]3CCC4C[C@H](O)CC[C@]4(C)[C@H]3CC[C@]12C (stereo partly drawn) [12c, (E)-1-((3R,8R,9S,10S,13S,14S,17S)-3-hydroxy-10,13-dimethylhexadecahydro-1H-cyclopenta[a]phenanthren-17-yl)ethan-1-one O-(methyl (2-(methylamino)ethyl)carbamoyl)oxime trifluoroacetate] | 1.39 h
4 | C/C(=N\OC(=O)N(C)C[C@@H]1CCCN1)[C@H]1CC[C@H]2[C@@H]3CCC4C[C@@H](O)CC[C@]4(C)[C@H]3CC[C@]12C (stereo partly drawn) [13a, (E)-1-((3S,8R,9S,10S,13S,14S,17S)-3-hydroxy-10,13-dimethylhexadecahydro-1H-cyclopenta[a]phenanthren-17-yl)ethan-1-one O-(methyl(((S)-pyrrolidin-2-yl)methyl)carbamoyl)oxime trifluoroacetate] | < 0.1 h
5 | C/C(=N\OC(=O)N(C)C[C@@H]1CCCN1)[C@H]1CC[C@H]2[C@@H]3CC=C4C[C@@H](O)CC[C@]4(C)[C@H]3CC[C@]12C [13b, (E)-1-((3S,8S,9S,10R,13S,14S,17S)-3-hydroxy-10,13-dimethyl-2,3,4,7,8,9,10,11,12,13,14,15,16,17-tetradecahydro-1H-cyclopenta[a]phenanthren-17-yl)ethan-1-one O-(methyl(((S)-pyrrolidin-2-yl)methyl)carbamoyl)oxime trifluoroacetate] | < 0.1 h
6 | C/C(=N\OC(=O)N(C)C[C@@H]1CCCN1)[C@H]1CC[C@H]2[C@@H]3CCC4C[C@H](O)CC[C@]4(C)[C@H]3CC[C@]12C (stereo partly drawn) [13c, (E)-1-((3R,8R,9S,10S,13S,14S,17S)-3-hydroxy-10,13-dimethylhexadecahydro-1H-cyclopenta[a]phenanthren-17-yl)ethan-1-one O-(methyl(((S)-pyrrolidin-2-yl)methyl)carbamoyl)oxime trifluoroacetate] | < 0.1 h
